Results taken from US10070889B2, “Inorganic pyrophosphate and uses thereof” (The Curators of the University of Missouri, priority 2011, dated 2018).
Like-named read-outs stand apart in the source and are kept apart here. Blank lines part the entries; values can stand above or below the compound they belong to. Where a SMILES comes first, the peptide text is derived from it. The star is where a group is joined. Cbz = O=C(OCc1ccccc1)*

Experiments:
[1] = tested on: sperm diluted in BTS; conditions: added to sperm diluted in BTS, after 6 days of cooling; cited from earlier work
[2] = tested on: boar spermatozoa; conditions: stored in BTS with 10 μM PPi
Description: Boar spermatozoa were washed twice with PBS-PVA, and sperm concentration was adjusted to 1×10^6 spermatozoa/ml in PBS-PVA. The sperm viability was assessed by LIVE/DEAD® Sperm Viability Kit (L-7011, Molecular Probes) which contains DNA dyes SYBR14 and propidium iodide (PI), following a manufacturer's protocol. Sperm samples (198 μl) were loaded onto a 96-well plate. SYBR14 (1 μl; final conc. 100 nM) and PI (1 μl; final conc. 12 μM) were added to sperm samples and incubated for 10 min at 37.5° C. in darkness. Flow cytometric analysis was performed using a Guava EasyCyte™ Plus flow cytometer (Guava Technologies, IMV Technologies, L'Aigle, France). For each sample, 5,000 events were analyzed by the Guava ExpressPro Assay program, using standard manufacturer settings. For assessment of sperm mitopotential, boar spermatozoa were stained with JC-1 (Cat. No. 4500-0250, MitoPotential Kit, IMV), and measured using manufacturer settings. For negative controls, DMSO or no staining solution was added to sperm samples.
Following an industry practice for boar semen storage, fresh boar semen was diluted in BTS extender and stored at room temperature (15-17° C.) for 10 days. […] As described above, sperm viability was assessed by flow cytometry using a SYBR14/PI viability kit and mitopotential was measured with JC-1 dye.

[3] = tested on: 20S proteasome and other chymotrypsin-like proteases, as well as calpains; conditions: PPi+BTS and Add PPi treatments, 10 μM PPi; controls 85.7
Description: (§1) The proteasomal-proteolytic and deubiquitinating activities, which are essential for fertilization, were assayed using specific fluorometric substrates Z-LLL-AMC, Z-LLVY-AMC, Z-LLE-AMC and ubiquitin-AMCs in spermatozoa stored for 3 and 10 days, with or without PPi. Alternatively, 10 μM PPi+BTS was added to semen preserved without PPi at the time of assay (“Add PPi” treatment). As a negative control, 10 μM MG132 (a proteasomal inhibitor) was added to sperm samples before assay.
(§2) Spermatozoa preserved in BTS with and without 10 μM PPi were loaded into a 96-well black plate (final sperm conc. 1×10^6 spermatozoa/ml), and incubated at 37.5° C. with Z-LLE-AMC (a specific substrate for 20S chymotrypsin-like peptidyl-glutamylpeptide hydrolyzing [PGPH] activity not sensitive to MG132; final conc. 100 μM; Enzo Life Sciences, Plymouth, Pa.), Z-LLVY-AMC (a specific substrate for 20S proteasome and other chymotrypsin-like proteases, as well as calpains; final conc. 100 μM; Enzo), Z-LLL-AMC (a specific substrate for 20S chymotrypsin-like activity sensitive to proteasomal inhibitor MG132; final conc. 100 μM; BostonBiochem, Cambridge, Mass.) or ubiquitin-AMC (specific substrate for ubiquitin-C-terminal hydrolase activity; final conc. 1 μM; Enzo) for 1 h. Fluorogenic proteasomal core substrates are composed of a small peptide (LLL/LLE/LLVY) coupled to a fluorescent probe, aminomethylcoumarin (AMC). […] In the presence of appropriate 20S core activity, the AMC molecule is cleaved off and becomes fluorescent. This emitted fluorescence was measured every 10 min for a period of 1 h, yielding a curve of relative fluorescence (no units). Fluorescence intensity was measured by Thermo Fluoroskan Ascent (Thermo Scientific), using a 380 nm excitation and 460 nm emission.

[4] = tested on: ubiquitin-C-terminal hydrolase activity; conditions: PPi+BTS (stored with 10 μM PPi), day 10; other treatments 98.4-122.7
Description: as §1, §2

[5] = tested on: 20S chymotrypsin-like peptidyl-glutamylpeptide hydrolyzing [PGPH] activity; conditions: other treatments 363.1-386.1
Description: as §1, §2

[6] = tested on: porcine oocytes inseminated with boar spermatozoa; assay: Porcine in vitro fertilization (IVF), total and polyspermic fertilization rates; format: cell-based
Description: Thereafter, 25-30 oocytes were placed into each of four 50 μl drops of the mTBM medium, which had been covered with mineral oil in a 35 mm polystyrene culture dish. The dishes were allowed to equilibrate in the incubator for 30 min until spermatozoa were added for fertilization. […] At the end of the washing procedure, the spermatozoa were resuspended in mTBM medium. After appropriate dilution, 50 μl of this sperm suspension was added to 50 μl of the medium that contained oocytes to give a final sperm concentrations of 1-10×10^5 spermatozoa/ml. Different concentrations of inorganic pyrophosphate (PPi; […], Sigma) were added to fertilization drops (final concentrations; 0-20 μM) at the time of sperm addition. Oocytes were co-incubated with spermatozoa for 6 h at 38.5° C., 5% CO2. At 6 h after IVF, oocytes were transferred into 100 μl NCSU23 containing 0.4% BSA ([…], Sigma) for further culture during 16-20 h.

[7] = tested on: 20S chymotrypsin-like activity sensitive to proteasomal inhibitor MG132; assay: Proteasomal activity of stored spermatozoa, fluorometric substrate Z-LLL-AMC; format: cell-based, boar
Description: Spermatozoa preserved in BTS with and without 10 μM PPi were loaded into a 96-well black plate (final sperm conc. 1×10^6 spermatozoa/ml), and incubated at 37.5° C. with Z-LLE-AMC (a specific substrate for 20S chymotrypsin-like peptidyl-glutamylpeptide hydrolyzing [PGPH] activity not sensitive to MG132; final conc. 100 μM; Enzo Life Sciences, Plymouth, Pa.), Z-LLVY-AMC (a specific substrate for 20S proteasome and other chymotrypsin-like proteases, as well as calpains; final conc. 100 μM; Enzo), Z-LLL-AMC (a specific substrate for 20S chymotrypsin-like activity sensitive to proteasomal inhibitor MG132; final conc. 100 μM; BostonBiochem, Cambridge, Mass.) or ubiquitin-AMC (specific substrate for ubiquitin-C-terminal hydrolase activity; final conc. 1 μM; Enzo) for 1 h. […] In the presence of appropriate 20S core activity, the AMC molecule is cleaved off and becomes fluorescent. This emitted fluorescence was measured every 10 min for a period of 1 h, yielding a curve of relative fluorescence (no units). Fluorescence intensity was measured by Thermo Fluoroskan Ascent (Thermo Scientific), using a 380 nm excitation and 460 nm emission.

[8] = tested on: boar spermatozoa bound to porcine oocyte zona pellucida
Description: Spermatozoa/oocytes were fixed in 2% formaldehyde for 40 min at room temperature, washed, permeabilized in PBS with 0.1% Triton-X-100 (PBS-TX), and blocked for 25 min in PBS-TX containing 5% normal goat serum. […] In order to count the number of spermatozoa bound to zona pellucida or acrosome reacted spermatozoa, oocyte were fixed and stained with DAPI and acrosome-binding lectin PNA-FITC (Molecular Probes) after IVF 30 min (5×10^5 spermatozoa/ml). Image acquisition was performed on a Nikon Eclipse 800 microscope (Nikon Instruments Inc., Melville, N.Y.) with Cool Snap camera (Roper Scientific, Tucson, Ariz.) and MetaMorph software (Universal Imaging Corp., Downington, Pa.).

[9] = tested on: boar spermatozoa; conditions: BTS-IMV+10 μM PPi, day 6, vs all other groups
Description: Values are expressed as the mean±SEM. […] Values are expressed as the mean percentages ±SEM. […] (C) Effect of PPi supplementation on the viability of spermatozoa stored in commercial and custom made BTS extenders. Boar spermatozoa were preserved in BTS-IMV (IMV technologies, France) or BTS-HM (homemade) with and without 10 μM PPi for 7 days at room temperature. Sperm motilities were evaluated by observation under light microscopy at 37.5° C. […] Experiments were repeated twice.
Semen was collected from proven fertile adult Duroc boars 15-22 months of age under the guidance of approved Animal Care and Use Committee (ACUC) protocols of the University of Missouri-Columbia (UM-C). The boars were placed on a routine collection schedule of one collection per week. The sperm-rich fraction of ejaculate was collected into an insulated vacuum bottle. Sperm-rich fractions of ejaculates with greater than 85% motile spermatozoa were used. Semen volumes were determined with a graduated cylinder. Sperm concentrations were estimated by a hemocytometer (Fisher Scientific, Houston, Tex.). The percentage of motile spermatozoa was estimated at 38.5° C. by light microscopy at 250× magnification. […]

Compound: prostaglandin F2α [PGF2α]
sperm viability and motility [1]: maintained better sperm viability and motility

deubiquitinating activity (ubiquitin-AMC), relative fluorescence [4]: 138.9
Compound: O=P(O)(O)OP(=O)(O)O [PPi, inorganic pyrophosphate]
content of metabolically active spermatozoa with polarized mitochondrial membranes ([2]; day 3, JC-1): augmented
percentage of live spermatozoa vs control spermatozoa ([2]; storage days 3 and 10, SYBR14/PI): no significant difference
chymotrypsin-like proteasomal core activity (Z-LLVY-AMC), fluorescence intensity [3]: 110.8-121.5
chymotrypsin-like PGPH activity (Z-LLE-AMC), relative fluorescence ([5]; Add PPi treatment (10 μM PPi added at time of assay), day 3): 392.1
chymotrypsin-like PGPH activity (Z-LLE-AMC), relative fluorescence ([5]; PPi+BTS (stored with 10 μM PPi), day 10): 388
polyspermy ([6]; 10 μM PPi in IVF medium, 1×10^6 spermatozoa/ml): 84.9%
percentage of total and polyspermic fertilization at reduced sperm concentrations ([6]; 10 μM PPi, 1, 2 and 5×10^5 spermatozoa/ml, significant at 5×10^5): augmented
fertilization rates with excess PPi ([6]; 100-500 μM PPi added into IVF medium): decreased fertilization rates in a dose-dependent manner
rates of total and polyspermic fertilization ([6]; increasing concentrations of PPi (up to 10 μM) in IVF medium, 1×10^6 spermatozoa/ml): increased significantly and progressively
combined (mono+polyspermic) fertilization rate, spermatozoa preserved with PPi ([6]; preserved with 10 μM PPi in BTS 3-4 days, IVF with or without PPi (FIG. 7D third, fourth column)): highest
fertilization ([6]; spermatozoa stored in BTS-IMV with 10 μM PPi for 3 days, below 70% without PPi): ~100%
fertilization rates, spermatozoa stored without PPi, PPi added during IVF ([6]; stored 3-4 days in BTS without PPi, IVF with 10 μM PPi (FIG. 7D second column)): higher
chymotrypsin-like activity (Z-LLL-AMC) ([7]; 10 μM PPi treatments vs no PPi, 1 h measurement): no differences between treatments
percentage of acrosome-reacted spermatozoa ([8]; 20 μM PPi vs 0-15 μM PPi): significantly higher
mean number of spermatozoa bound to ZP ([8]; increasing concentrations of PPi, 30 min, 5×10^5 spermatozoa/ml): decreased slightly, but not significantly
sperm motility [9]: Higher

Compound: CC(C)C[C@@H](C=O)NC(=O)[C@H](CC(C)C)NC(=O)[C@H](CC(C)C)NC(=O)OCc1ccccc1 [MG132, reference compound] (Cbz-Leu-Leu-Leu-aldehyde)
chymotrypsin-like activity in spermatozoa ([7]; 10 μM MG132 added before assay, day 3): low
